Patent US20250382289A1, “PYRAZOLOPYRIDINE DERIVATIVE AND APPLICATION THEREOF IN MEDICINE” (XIZANG HAISCO PHARMACEUTICAL CO., LTD., priority 2022, published 2025)
Like-named read-outs stand apart in the source and are kept apart here.

Columns and labels:
USP1/UAF1 = USP1/UAF1 (Homo sapiens (Human), UniProt O94782); test: Inhibitory activity on USP1/UAF1 enzymology (ubiquitin rhodamine 110 substrate); format: biochemical; conditions: 0.5 nM USP1/UAF1, 500 nM ubiquitin rhodamine 110
Procedure: Ubiquitin rhodamine 110 was used as a substrate to detect the activity of the deubiquitinating enzyme USP1/UAF1 after drug treatment. The total test system was 20 μl, and the test buffer comprises 50 mM Tris-HCl (pH 7.8), 0.5 mM EDTA, 0.01% Bovine Serum Albumin, 1 mM DTT, and 0.01% Tween-20. At the beginning of the experiment, 0.5 nM USP1/UAF1 (Bio-Techne, E-568-050) protein was added to a 384-well plate (PerkinElmer, 6008269), and the test compound diluted in a gradient was then added. After incubation at room temperature for 10 min, 500 nM ubiquitin rhodamine 110 (Bio-Techne, U-555-050) was added, and the mixture was incubated at room temperature for 20 min. Enspire™ Multilabel Reader microplate reader (PerkinElmer) was used for detection at excitation light of 485 nm/emission light of 535 nm. The IC50 value was calculated using GraphPad Prism software.

[1] = Pharmacokinetic test in beagle dogs; format: in vivo; conditions: i.g. 5 mg/kg
Procedure: Experimental objective: a single dose of test compounds was administered to beagle dogs intravenously and intragastrically, and the concentrations of the test compounds in plasma of the beagle dogs were measured to evaluate pharmacokinetic characteristics of the test compounds in the beagle dogs.
Experimental animals: male beagle dogs, about 8-11 kg, were purchased from Beijing Marshall Biotechnology Co., Ltd.
Experimental method: On the day of the experiment, the beagle dogs were randomly grouped according to their body weights. The animals were fasted but with water available for 14 to 18 hours one day before administration, and were fed 4 hours after administration. The administration was performed based on the information in the following table.
Vehicle for intravenous administration: 5% DMA+5% Solutol+90% Saline; Vehicle for intragastric administration: 0.5% MC
(DMA: dimethylacetamide; Solutol: polyethylene glycol-60-hydroxystearate; Saline: physiological saline; MC: Methylcellulose solution)
Sampling: Before and after the administration, blood was taken from the jugular veins or limb veins, and placed in an EDTAK2 centrifuge tube. Centrifugation was performed at 5000 rpm at 4° C. for 10 min, and plasma was collected.
Time points for blood collection: 0, 5 min, 15 min, 30 min, 1 h, 2 h, 4 h, 6 h, 8 h, 10 h, 12 h, 24 h, 48 h, and 72 h. Before analysis and detection, all the samples were stored at −60° C. or lower. The samples were analyzed quantitatively by LC-MS/MS.

MDA-MB-436 cells = test: Clone formation test of MDA-MB-436 cells; format: cell-based; conditions: 14 days, crystal violet, OD 570 nm, read-out: IC50 (nM), inhibitory activity on MDA-MB-436 cell clones
Procedure: In this experiment, MDA-MB-436 cells were treated by adding a test compound to detect the ability of cell clone formation. At the beginning of the experiment, MDA-MB-436 cells (ATCC, HTB-130) were added to a 96-well plate (Corning, 3599), with 500 cells per well, and they were subjected to adherent culture overnight. The next day, the compound diluted in a gradient was added, and culture was continued in a […] incubator at 37° C. On the 7th day, the old culture medium was discarded, and the test compound diluted in a gradient was added again. At the 14th day, the 96-well plate was taken out, the culture liquid was discarded, and cell clones were detected by Crystal violet Assay kit. PHERAstar FSX microplate reader (BMG LABTECH) was used for detection of OD at 570 nm. The IC50 value was calculated using GraphPad Prism software.

[2] = Pharmacokinetic test in mice; format: in vivo, ICR mice; conditions: plasma, i.g. 10 mg/kg
Procedure: Experimental animals: Male ICR mice, 25-30 g, were purchased from Chengdu Ddossy Experimental Animals Co., Ltd.
Experimental design: On the day of the experiment, the ICR mice were randomly grouped according to their body weights. The animals were fasted with water available for 12 to 14 h one day before the administration, and were fed 4 h after the administration.
Before and after the administration, blood was taken from the orbit of the animals at specified time points and placed in an EDTAK2 centrifuge tube. The blood was centrifuged at 5000 rpm and 4° C. for 10 min to collect plasma. The blood collection time points for the intravenous group and intragastric administration group were: 0, 5 min, 15 min, 30 min, 1 h, 2 h, 4 h, 7 h, and 24 h. Before analysis and detection, all samples were stored below −60° C. The samples were analyzed quantitatively by LC-MS/MS.

[3] = Homo sapiens, MDA-MB-436, 336 h

Sequence of USP1/UAF1 (O94782 whole entry): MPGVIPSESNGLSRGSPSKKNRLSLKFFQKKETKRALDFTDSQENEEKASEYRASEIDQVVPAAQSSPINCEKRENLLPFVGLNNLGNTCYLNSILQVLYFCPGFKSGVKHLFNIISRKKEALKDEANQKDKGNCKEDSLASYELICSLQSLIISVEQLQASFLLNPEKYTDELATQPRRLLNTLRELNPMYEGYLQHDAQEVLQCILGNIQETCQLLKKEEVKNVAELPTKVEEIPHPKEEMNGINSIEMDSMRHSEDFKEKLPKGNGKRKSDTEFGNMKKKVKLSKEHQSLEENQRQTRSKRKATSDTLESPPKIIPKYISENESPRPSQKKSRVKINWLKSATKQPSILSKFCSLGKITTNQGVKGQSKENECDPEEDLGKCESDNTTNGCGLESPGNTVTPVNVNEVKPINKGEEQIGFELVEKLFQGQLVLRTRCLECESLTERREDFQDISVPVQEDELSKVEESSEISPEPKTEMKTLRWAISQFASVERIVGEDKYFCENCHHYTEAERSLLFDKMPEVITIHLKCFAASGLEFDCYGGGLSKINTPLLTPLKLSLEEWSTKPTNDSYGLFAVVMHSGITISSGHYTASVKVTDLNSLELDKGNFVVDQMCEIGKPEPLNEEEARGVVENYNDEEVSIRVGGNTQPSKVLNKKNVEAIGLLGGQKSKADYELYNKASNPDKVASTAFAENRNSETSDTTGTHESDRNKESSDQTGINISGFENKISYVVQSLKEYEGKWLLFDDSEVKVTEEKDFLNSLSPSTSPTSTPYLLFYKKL
Sequence of USP1/UAF1 (Q8TAF3 whole entry partner): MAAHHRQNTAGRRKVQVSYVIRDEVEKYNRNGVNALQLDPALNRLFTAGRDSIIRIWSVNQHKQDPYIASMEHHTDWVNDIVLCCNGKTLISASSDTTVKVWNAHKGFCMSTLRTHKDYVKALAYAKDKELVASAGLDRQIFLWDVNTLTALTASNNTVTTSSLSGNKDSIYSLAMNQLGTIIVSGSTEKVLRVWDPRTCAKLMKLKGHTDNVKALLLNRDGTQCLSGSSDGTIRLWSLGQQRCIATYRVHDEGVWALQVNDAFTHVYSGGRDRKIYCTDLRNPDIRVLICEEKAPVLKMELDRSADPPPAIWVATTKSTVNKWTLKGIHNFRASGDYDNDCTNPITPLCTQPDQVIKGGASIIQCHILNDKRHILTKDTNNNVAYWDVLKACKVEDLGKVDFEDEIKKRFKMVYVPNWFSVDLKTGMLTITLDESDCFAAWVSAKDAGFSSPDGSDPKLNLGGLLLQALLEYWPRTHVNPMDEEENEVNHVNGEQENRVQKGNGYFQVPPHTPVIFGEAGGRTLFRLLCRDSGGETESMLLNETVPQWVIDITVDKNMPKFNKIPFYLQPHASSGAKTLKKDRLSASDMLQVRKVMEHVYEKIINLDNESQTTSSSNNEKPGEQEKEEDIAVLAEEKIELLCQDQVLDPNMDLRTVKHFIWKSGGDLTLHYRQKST

SMILES	IC50 (USP1/UAF1) [nM]	Oral absorption [2]	IC50 (MDA-MB-436 cells; [3]) [nM]	further results
COc1ncnc(C2CC2)c1-c1ncc2cnn(CC34CCC(c5nc(C(F)(F)F)cn5C(C)C)(CC3)CC4)c2c1F [Compound 2]	< 20	Yes	–	F (%) [1]: 41.2%; AUC0-t ([1]; plasma): 6302 ng·h/mL; IC50 (MDA-MB-436 cells): < 200 nM
C#CCn1cc(C(F)(F)F)nc1C12CCC(Cn3ncc4cnc(-c5c(OC)ncnc5C5CC5)c(F)c43)(CC1)CC2 [Compound 8]	–	Yes	–	–
CC(C)n1cc(C(F)(F)F)nc1C12CCC(Cn3ncc4cnc(-c5c(OC(F)F)ncnc5C5CC5)c(F)c43)(CC1)CC2 [Compound 4]	< 20	–	–	IC50 (MDA-MB-436 cells): < 200 nM
Fc1c(-c2c(OC(F)F)ncnc2C2CC2)ncc2cnn(Cc3ccc(-c4nc(C(F)(F)F)c5n4CC4(CC4)C5)cc3)c12 [Compound 12]	–	Yes	–	–
COc1ncnc(C2CC2)c1-c1ncc2cnn(Cc3ccc(-c4nc(C(F)(F)F)cn4C(C)C)cc3)c2n1 [Control compound A, reference compound]	–	–	–	bioavailability ([1]; male, dog, plasma, po): 15.8%; AUC0-t ([1]; male, dog, po, plasma, read-out: AUC0-t): 994 ng·h/mL
Fc1c(-c2c(OC(F)F)ncnc2C2CC2)ncc2cnn(CC34CCC(c5nc(C(F)(F)F)cn5CC5CC5)(CC3)CC4)c12 [Compound 10]	–	–	< 200	–
COc1ncnc(C2CC2)c1-c1ncc2cnn(Cc3ccc(-c4nc(C(F)(F)F)cn4C(C)C)cc3)c2c1F [Compound 1]	< 20	Yes	–	IC50 (MDA-MB-436 cells): < 200 nM

Now from value to molecule, other results behind:

IC50 (USP1/UAF1) [nM]	Oral absorption [2]	IC50 (MDA-MB-436 cells; [3]) [nM]	SMILES	further results
–	Yes	–	Fc1c(-c2c(OC(F)F)ncnc2C2CC2)ncc2cnn(Cc3ccc(-c4nc(C(F)(F)F)c5n4CC(F)(F)C5)cc3)c12 [Compound 14]	–
–	–	< 200	[2H]C([2H])([2H])C([2H])(n1cc(C(F)(F)F)nc1C12CCC(Cn3ncc4cnc(-c5c(OC(F)F)ncnc5C5CC5)c(F)c43)(CC1)CC2)C([2H])([2H])[2H] [Compound 15]	–
–	–	< 200	CC(C)n1cc(C(F)(F)F)nc1-c1ccc(Cn2ncc3cnc(-c4c(OC(F)F)ncnc4C4CC4)c(F)c32)cc1 [Compound 20]	–
–	Yes	< 200	COc1ncnc(C2CC2)c1-c1ncc2cnn(Cc3ccc(-c4nc(C(F)(F)F)c5n4[C@@H](C)CC5)cc3)c2c1F [Compound 22]	–
< 20	Yes	< 200	C#CCn1cc(C(F)(F)F)nc1-c1ccc(Cn2ncc3cnc(-c4c(OC)ncnc4C4CC4)c(F)c32)cc1 [Compound 16]	–
–	Yes	–	COc1ncnc(C2CC2)c1-c1ncc2cnn(Cc3ccc(-c4nc(C(F)(F)F)c5n4CC4(CC4)C5)cc3)c2c1F [Compound 21]	–
